Paper PMC4151304 (European journal of medicinal chemistry, 2012)

Columns and labels:
[1] = target: PRMT1 Y152A (Rattus norvegicus, UniProt Q63009, Y152A); assay: Radioactive methyltransferase assay, PRMT1 mutant Y152A; assay type: biochemical; details: 4 μM inhibitor, 2 μM H4-20, 5 μM [14C]AdoMet
[2] = target: T1, PRMT1 (Rattus norvegicus, UniProt Q63009); assay: Dialysis experiment and time-dependent inhibition; assay type: biochemical; details: dialysis and time-dependent inhibition (0, 1.5, 2.5, 4.0 μM)
T1 sequence (Q63009 whole entry): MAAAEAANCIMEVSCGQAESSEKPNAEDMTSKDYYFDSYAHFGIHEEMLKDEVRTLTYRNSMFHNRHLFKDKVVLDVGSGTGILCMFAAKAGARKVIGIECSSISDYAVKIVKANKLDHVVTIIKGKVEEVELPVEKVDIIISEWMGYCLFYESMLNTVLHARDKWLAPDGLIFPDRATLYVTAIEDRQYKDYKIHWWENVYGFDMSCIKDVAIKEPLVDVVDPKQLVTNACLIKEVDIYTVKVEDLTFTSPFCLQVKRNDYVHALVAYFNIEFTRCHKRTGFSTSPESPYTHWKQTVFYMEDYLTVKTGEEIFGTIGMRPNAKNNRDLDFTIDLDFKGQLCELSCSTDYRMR

[3] = test system: HeLa cells; assay: Cell cycle assay by flow cytometry; assay type: cell-based; details: 48 h of treatment at 2.5 and 5 μM (data not shown)
[4] = target: T2, PRMT4/CARM1 (Mus musculus, UniProt Q9WVG6); assay: Radioactive methyltransferase assay, CARM1; assay type: biochemical
T2 sequence (Q9WVG6 1-608): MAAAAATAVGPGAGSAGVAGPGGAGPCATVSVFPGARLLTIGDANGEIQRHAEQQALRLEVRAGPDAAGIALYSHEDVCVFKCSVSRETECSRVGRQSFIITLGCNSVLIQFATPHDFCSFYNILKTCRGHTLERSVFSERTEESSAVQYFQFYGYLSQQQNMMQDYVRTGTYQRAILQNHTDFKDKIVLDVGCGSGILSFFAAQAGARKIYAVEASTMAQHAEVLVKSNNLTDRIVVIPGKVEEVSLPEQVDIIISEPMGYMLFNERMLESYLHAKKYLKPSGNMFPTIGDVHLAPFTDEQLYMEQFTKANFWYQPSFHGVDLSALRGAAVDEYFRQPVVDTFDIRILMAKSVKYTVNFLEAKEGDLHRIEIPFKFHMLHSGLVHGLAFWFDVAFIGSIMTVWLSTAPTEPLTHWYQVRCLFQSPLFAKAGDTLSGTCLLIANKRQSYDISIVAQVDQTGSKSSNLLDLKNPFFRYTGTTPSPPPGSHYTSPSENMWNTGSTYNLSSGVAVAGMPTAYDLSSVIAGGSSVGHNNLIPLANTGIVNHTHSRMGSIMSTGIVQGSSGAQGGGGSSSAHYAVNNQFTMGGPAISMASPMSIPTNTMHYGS

[5] = target: T1, PRMT1; assay: Radioactive methyltransferase assay, PRMT1; assay type: biochemical; details: for IC50: IC50, His6x-PRMT1 0.05 μM, 2 μM H4(1-20), 5 μM [14C]-SAM, 30°C

Chain of PRMT1 Y152A (Q63009 whole entry Y152A): as the sequence (Q63009 whole entry) above, with Y152A counted along it

Row | Compound | IC50 [5] | also measured
1 | CCn1/c(=C\C=C\C2=[N+](CC)c3cccc4cccc2c34)c2cccc3cccc1c32.[I-] [compound 11, 1-ethyl-2-[3-(1-ethylbenz[c,d]indol-2(1H)-ylidene)-1-propen-1-yl]-iodide] |  | inhibition of Y152A PRMT1 compared with wt-PRMT1 [1]: same potency as is for wt-PRMT1; reversible vs irreversible inhibition [2]: reversible; Sub-G1 population, indicative of apoptosis [3]: appearance of a hypodiploid peak (Sub-G1) was observed; IC50 [4]: ~100 µM; kinetic pattern of inhibition ([5]; steady-state kinetics, with regard to both H4 and AdoMet substrates): noncompetitive inhibitor
2 | CCCCn1/c(=C\C=C\C2=[N+](CCCC)c3cccc4cccc2c34)c2cccc3cccc1c32 [compound 12, 1-butyl-2-[3-(1-butyllbenz[c,d]indol-2(1H)-ylidene)-1-propen-1-yl]-iodide] | 12 ± 0.5 µM | 
3 | C(/C=C/C1=[N+](CCCc2ccccc2)c2cccc3cccc1c23)=c1\c2cccc3cccc(c32)n1CCCc1ccccc1 [compound 13, 1-phenylpropyl-2-[3-(1-phenylpropylbenz[c,d]indol-2(1H)-ylidene)-1-propen-1-yl]iodide] | 15.5 ± 0.2 µM | 
4 | CCN1/C(=C\C=C\C2=[N+](CC)c3ccccc3C2(C)C)C(C)(C)c2ccccc21 [compound 22] | 284 ± 3.5 µM | 
5 | CCN1/C(=C/C=C/C2=[N+](CC)c3ccc4ccccc4c3C2(C)C)C(C)(C)c2c1ccc1ccccc21 [compound 25] | 20.3 ± 0.2 µM | 
6 | CCCCN1/C(=C\C=C\C2=[N+](CCCC)c3ccc4ccccc4c3C2(C)C)C(C)(C)c2c1ccc1ccccc21 [compound 26] | 18 ± 0.5 µM | 
7 | CC1(C)C(/C=C/C=C2/N(CCCc3ccccc3)c3ccc4ccccc4c3C2(C)C)=[N+](CCCc2ccccc2)c2ccc3ccccc3c21 [compound 27] | 14.3 ± 0.2 µM | 
8 | CC1(C)C(/C=C/C=C2/N(CCC[N+](C)(C)C)c3ccc(Br)cc3C2(C)C)=[N+](CCC[N+](C)(C)C)c2ccc(Br)cc21 [compound 29] | 292 ± 40.1 µM | 
